According to patent US6399654B1, “Biflavanoids and derivatives thereof as antiviral agents” (priority 1995, dated 2002):
Like-named read-outs stand apart in the source and are kept apart here.

Legend:
[1] = tested on: Human lung carcinoma (A549) cells
[2] = tested on: Parainfluenza Type 3 Virus; assay: organism not typed; assay type: cell-based
[3] = tested on: HCMV; assay: HCMV CPE inhibition in HFF cells; settings: HFF Cells
[4] = tested on: Influenza B Panama/45/90; assay: microbe, parasite or virus in culture; assay type: cell-based; settings: Influenza B Panama/45/90
[5] = tested on: Respiratory Syncytial Virus; assay: microbe, parasite or virus in culture; assay type: cell-based; settings: Respiratory Syncytial Virus
[6] = tested on: Measles Virus; assay: Measles virus neutral red dye uptake in BSC-1 cells; assay type: cell-based
[7] = target: T1, HIV-1 RT (Human immunodeficiency virus type 1 group M subtype B, UniProt P03366); assay: Anti-HIV-1 RT assay (recombinant enzyme); assay type: biochemical; settings: for Anti-HIV-1 RT IC50: values in parentheses or in words
T1 construct: made in house; host or cells: Escherichia coli

[8] = tested on: HSV-1; assay: HSV-1 CPE inhibition in HFF cells; settings: HFF Cells
[9] = tested on: VZV; assay: VZV plaque reduction assay in HFF cells; settings: for VZV Plaque Reduction EC50 / VZV SI (CC50/EC50): HFF Cells
[10] = tested on: Human lung carcinoma (A549) cells; settings: Adenovirus Type 5 test
[11] = tested on: Influenza A (H1N1) Texas/36/91; assay: microbe, parasite or virus in culture; assay type: cell-based, influenza A virus; settings: Influenza A (H1N1) Texas/36/91
[12] = tested on: African green monkey kidney (BSC-1) cells
[13] = tested on: Adenovirus Type 5; assay: microbe, parasite or virus in culture; assay type: cell-based
[14] = tested on: Parainfluenza Type 3 Virus; assay: organism not typed; assay type: cell-based; settings: Parainfluenza Type 3 Virus
[15] = tested on: Madin Darby canine kidney (MDCK) cells; settings: for CPE Inhibition IC50 (50% cell inhibitory (cytotoxic) concentration): Influenza A (H1N1) test
[16] = tested on: Hepatitis B Virus (HBV); assay: Inhibition of HBV replication in 2.2.15 cells, extracellular (virion) HBV DNA; settings: for SI (CC50/EC90), HBV Virion: selective index;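 as to all read-outs here: extracellular virion HBV DNA in culture medium measured by slot blot hybridization with a 32P-labeled HBV probe, quantified against HBV DNA standards, after 9 days of daily dosing, compared with day 0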
Method: Test compounds were added daily for a nine continuous day period; the culture medium was collected and stored for analysis of extracellular (virion) HBV DNA after 0, 3, 6, and 9 days of treatment. The treated cells were lysed 24 hours following day 9 of treatment for the analysis of intracellular HBV genomic forms. The overall levels of HBV DNA (both extracellular and intracellular DNA) and the relative rate of HBV replication (intracellular DNA) were analyzed quantitatively. The analysis was performed using blot hybridization techniques and [^32P]-labeled HBV-specific probes. The HBV DNA levels were measured by comparison to known amounts of HBV DNA standards applied to every nitrocellulose membrane (gel or slot blot). An AMBIS beta scanner, which measures the radioactive decay of the hybridized probes directly from the nitrocellulose membranes, was used for the quantitative analysis. Standard curves, generated by multiple analyses, were used to correlate CPM measurements made by the beta scanner with relative levels of target HBV DNA. The levels of HBV virion DNA released into the culture medium were analyzed by a slot blot hybridization procedure. HBV DNA levels were then compared to those at day 0 to determine the effect of the test compound. A known positive drug was evaluated in parallel with test compounds in each test.
Determination of therapeutic concentrations (EC50 and EC90) and toxicity concentrations (IC50) were determined as previously described (90). Stock solutions of text drugs were prepared in DMSO. Culture medium was changed daily and analyzed for extracellular HBV DNA after nine days of continuous drug exposure. Extracellular HBV DNA was extracted from the culture media and analyzed by a slot blot hydridization technique, using a ^32P-labeled Eco RI HBV DNA fragment, as previously described (91), and quantitated via comparison to HBV standards on a nitrocellulose filter, using an AMBIS beta scanner. Toxicity was determined by measuring inhibition of neutral red dye uptake. […] Effective concentration values for individual agents are the mean of six cultures per concentration point. Toxicity values are the mean of three cultures per concentration point.

[17] = tested on: African green monkey kidney (MA-104) cells; settings: for CPI Inhibition IC50 (cytotoxic): Parainfluenza Type 3 Virus test; for CPE Inhibition IC50 (cytotoxic): Respiratory Syncytial Virus test
[18] = tested on: Respiratory Syncytial Virus; assay: microbe, parasite or virus in culture; assay type: cell-based; settings: Respiratory Syncytial Virus; remark: listed apart in the source
[19] = tested on: Influenza A (H1N1) Texas/36/91; assay: microbe, parasite or virus in culture; assay type: cell-based, influenza A virus; settings: Influenza A (H1N1) Texas/36/91; remark: listed apart in the source
[20] = tested on: Measles Virus; assay: microbe, parasite or virus in culture; assay type: cell-based; settings: Measles Virus
[21] = tested on: African green monkey kidney (BSC-1) cells; settings: Measles Virus test
[22] = tested on: HSV-2; assay: HSV-2 CPE inhibition in HFF cells; settings: HFF Cells
[23] = tested on: HFF Cells
[24] = tested on: Influenza A (H3N2) Beijing/32/92; assay: microbe, parasite or virus in culture; assay type: cell-based, influenza A virus; settings: Influenza A (H3N2) Beijing/32/92
[25] = tested on: Influenza A (H3N2) Beijing/32/92; assay: microbe, parasite or virus in culture; assay type: cell-based, influenza A virus; settings: Influenza A (H3N2) Beijing/32/92; remark: listed apart in the source
[26] = tested on: Adenovirus Type 5; assay: Adenovirus type 5 neutral red dye uptake in A549 cells; assay type: cell-based; settings: Adenovirus Type 5
[27] = tested on: Madin Darby canine kidney (MDCK) cells
[28] = tested on: Influenza B Panama/45/90; assay: microbe, parasite or virus in culture; assay type: cell-based

CC(=O)Oc1ccc([C@@H]2CC(=O)c3c(cc(OC(C)=O)c(-c4c(OC(C)=O)cc(OC(C)=O)c5c4O[C@H](c4ccc(OC(C)=O)cc4)CC5=O)c3OC(C)=O)O2)cc1 [Rhusflavanone hexaacetate (10), rhusflavanone hexaacetate]
Neutral Red IC50 (cytotoxic) [1]: 26 µg/mL | Neutral Red EC50 [2]: 32 µg/mL | HCMV CPE Inhibition EC50 [3]: >4.0 µg/mL | HCMV SI (CC50/EC50) [3]: <3.3 | CPE Inhibition EC50 [4]: >10 µg/mL | CPE Inhibition EC50 [5]: >10 µg/mL | Neutral Red EC50 [6]: <10 µg/mL | Anti-HIV-1 RT % Inhibition at 200 μg/ml [7]: 0.00% | Anti-HIV-1 RT IC50 [7]: Inactive | HSV-1 CPE Inhibition EC50 [8]: >4.0 µg/mL | HSV-1 SI (CC50/EC50) [8]: <4.6 | VZV Plaque Reduction EC50 [9]: 11.3 µg/mL | VZV SI (CC50/EC50) [9]: 4.1 | CPE Inhibition IC50 (cytotoxic) [10]: 22 µg/mL | Neutral Red EC50 [11]: 5.6 µg/mL | Neutral Red IC50 (cytotoxic) [12]: <11 µg/mL | CPE Inhibition EC50 [13]: >10 µg/mL | CPI Inhibition EC50 [14]: >10 µg/mL | CPE Inhibition IC50 (50% cell inhibitory (cytotoxic) concentration) [15]: 7.2 µg/mL | CPE Inhibition IC50 (cytotoxic) ([15]; Influenza A (H3N2) test): 5.6 µg/mL | CPE Inhibition IC50 (cytotoxic) ([15]; Influenza B test): 4.2 µg/mL | anti-HBV activity (in words) ([16]; 2.2.15 cells): moderate anti-HBV activity | SI (CC50/EC90), HBV Virion [16]: 2.8 | CPI Inhibition IC50 (cytotoxic) [17]: 22 µg/mL | CPE Inhibition IC50 (cytotoxic) [17]: 13 µg/mL | Neutral Red EC50 [18]: 19 µg/mL | CPE Inhibition EC50 [19]: >10 µg/mL | CPI Inhibition EC50 [20]: ˜3 ug/ml | CPI Inhibition IC50 (cytotoxic) [21]: <4 µg/mL | HSV-2 CPE Inhibition EC50 [22]: >4.0 µg/mL | HSV-2 SI (CC50/EC50) [22]: <4.6 | HCMV CPE Inhibition CC50 [23]: 13.4 µg/mL | HSV-1 CPE Inhibition CC50 [23]: 18.5 µg/mL | HSV-2 CPE Inhibition CC50 [23]: 18.5 µg/mL | VZV Plaque Reduction CC50 [23]: 46.7 µg/mL | CPE Inhibition EC50 [24]: >10 µg/mL | Neutral Red EC50 [25]: 5.4 µg/mL | Neutral Red EC50 [26]: 19 µg/mL | Neutral Red IC50 (cytotoxic) ([27]; Influenza A (H1N1) test): 5.7 µg/mL | Neutral Red IC50 (cytotoxic) ([27]; Influenza A (H3N2) test): 5.3 µg/mL

CC(=O)Oc1ccc([C@@H]2CC(=O)c3c(cc(OC(C)=O)c(-c4c(OC(C)=O)cc5c(c4OC(C)=O)C(=O)C[C@@H](c4ccc(OC(C)=O)cc4)O5)c3OC(C)=O)O2)cc1 [Succedaneaflavanone hexaacetate (12), succedaneaflavanone hexaacetate]
Neutral Red IC50 (cytotoxic) [1]: 6 µg/mL | Neutral Red EC50 [2]: >32 µg/mL | HCMV CPE Inhibition EC50 [3]: >4.0 µg/mL | HCMV SI (CC50/EC50) [3]: <3.5 | CPE Inhibition EC50 [4]: 5.4 µg/mL | CPE Inhibition EC50 [5]: >3 µg/mL | Neutral Red EC50 [6]: <2 µg/mL | Anti-HIV-1 RT % Inhibition at 200 μg/ml [7]: 0.00% | Anti-HIV-1 RT IC50 [7]: Inactive | HSV-1 CPE Inhibition EC50 [8]: >4 µg/mL | HSV-1 SI (CC50/EC50) [8]: <4.4 | activity against VZV (in words) [9]: moderately active | VZV Plaque Reduction EC50 [9]: 7.1 µg/mL | VZV SI (CC50/EC50) [9]: 9.6 | CPE Inhibition IC50 (cytotoxic) [10]: 19 µg/mL | Neutral Red EC50 [28]: 5.9 µg/mL | Neutral Red EC50 [11]: 7.4 µg/mL | Neutral Red IC50 (cytotoxic) [12]: <200 µg/mL | CPE Inhibition EC50 [13]: 20 µg/mL | CPI Inhibition EC50 [14]: >10 µg/mL | CPE Inhibition IC50 (50% cell inhibitory (cytotoxic) concentration) [15]: 8.2 µg/mL | CPE Inhibition IC50 (cytotoxic) ([15]; Influenza A (H3N2) test): 12 µg/mL | CPE Inhibition IC50 (cytotoxic) ([15]; Influenza B test): 12 µg/mL | anti-HBV activity (in words) ([16]; 2.2.15 cells): moderate anti-HBV activity | EC50 ([16]; read-out: EC50 (50% effective dose), HBV Virion, 2.2.15 cells, extracellular (virion) HBV DNA, 9 days treatment): 3.5 µM | EC90 ([16]; read-out: EC90 (90% effective dose), HBV Virion, 2.2.15 cells, extracellular (virion) HBV DNA, 9 days treatment): 128 µM | SI (CC50/EC90), HBV Virion [16]: 1.9 | CPI Inhibition IC50 (cytotoxic) [17]: ˜14 ug/ml | CPE Inhibition IC50 (cytotoxic) [17]: 4 µg/mL | Neutral Red EC50 [18]: 6 µg/mL | CPE Inhibition EC50 [19]: 5.6 µg/mL | CPI Inhibition EC50 [20]: ˜3.2 ug/ml | CPI Inhibition IC50 (cytotoxic) [21]: <4 µg/mL | HSV-2 CPE Inhibition EC50 [22]: >4.0 µg/mL | HSV-2 SI (CC50/EC50) [22]: <4.4 | HCMV CPE Inhibition CC50 [23]: 14.4 µg/mL | HSV-1 CPE Inhibition CC50 [23]: 17.7 µg/mL | HSV-2 CPE Inhibition CC50 [23]: 17.7 µg/mL | VZV Plaque Reduction CC50 [23]: 68.0 µg/mL | CPE Inhibition EC50 [24]: 8.8 µg/mL | Neutral Red EC50 [25]: 5.6 µg/mL | Neutral Red EC50 [26]: 6 µg/mL | Neutral Red IC50 (cytotoxic) ([27]; Influenza A (H1N1) test): 7.4 µg/mL | Neutral Red IC50 (cytotoxic) ([27]; Influenza A (H3N2) test): 5.6 µg/mL | Neutral Red IC50 (cytotoxic) ([27]; Influenza B test): 5.9 µg/mL
